Data taken from US7510833B2, “Method for examining obesity or leanness” (Banyu Pharmaceutical Co., Ltd., priority 2003, dated 2009).

Key:
Format in all cases: in vivo, mouse
[1] = system: CD11b positive blood cells (monocytes/macrophages); experiment: Expression analysis of CD11b by flow cytometry in mice administered with MCP-1; settings: subcutaneous infusion by osmotic pump, 10 ng/0.5 μl/hr over 2 weeks; versus saline-administered control mice; FIG. 10(d)-(f)
Method: The analysis using flow cytometry was performed to study how the count of CD11b, which was a surface antigen of macrophages, or blood monocytes would vary upon administration of MCP-1.
Mice were first subcutaneously infused with. MCP-1, using an osmotic pump, at the rate of 10 ng/0.5 μl/hr over 2 weeks. Next, blood was collected from the tail veins of the control mice (C57BL/6), the DIO mice and the MCP-1 treated mice, respectively, using a heparinized capillary. After blood cells were collected from the blood by centrifugation at 300×g for 5 minutes, they were incubated with the FITC-labeled anti-mouse CD11b antibody (BD Biosciences) at room temperature for 15 minutes. The samples were incubated with the IgG2b isotype to serve as a non-specific binding control. After washing these cells with PBS, erythrocytes were lyzed with a lysis buffer at room temperature for 5 minutes. After washing the cells with PBS, the cells were suspended in PBS containing 0.5% formaldehyde. Flow cytometry was performed on this suspension, using an EPCIS Elite Flow Cytometer (Beckman Coulter, Inc.), to identify monocytes. Here, the analysis by flow cytometry was carried out by determining the population of monocytes/macrophages in the whole blood cells. In the flow cytometry 40,000 cells per each sample were analyzed with the fluorescence and scattered light as indices. […]

[2] = system: leptin; experiment: Expression of leptin in white adipocytes of mice i.c.v. administered with NPY Y5 agonist; settings: 5 μg/day i.c.v., non-treated C57BL/6N set to 1
[3] = system: MCP-1; experiment: Expression of MCP-1 in white adipocytes of mice i.c.v. administered with NPY Y5 agonist (TaqMan PCR); settings: 5 μg/day i.c.v., non-treated C57BL/6N set to 1
Method: Model mice displaying obesity were constructed by the administration of NPY Y5 agonist in the manner described below.
Male mice (9-12 weeks old) (C57BL/6J, CLEA, Inc.) were bred at one animal per plastic cage under the conditions of: room temperature 23±2° C.; and humidity 55±15%. The light-dark cycle during breeding period was set to be 12 hours and the light was put on at 7 a.m. and turned off at 7 p.m. Mice were allowed access to ad lib feed (CE-2 (protein: 25.4 wt. %; carbohydrate: 50.3 wt. %; lipid: 4.4 wt. %), CLEA, Inc.) and water.
Mice were anesthetized with 80 mg/kg of sodium pentobarbital (Dinabott Inc.) and were locally implanted with sterilized 28-gage brain fusion cannulas (Alzet) at their right cerebral ventricles. The cannula was fixed vertically relative to the cranical bone at the position 0.4 mm behind and 0.8 mm side of the bregma and 2 mm deep. The cannula was fixed to the ventricle with dental cement. The cannula was connected to an osmotic pump (model no. 2002 manufactured by Alzet) filled with 10 mM phosphate buffer containing 0.05% bovine serum albumin via a polyvinylchloride tube. […]
The quantitative analysis of the expression amount of MCP-1 was performed by TaqMan PCR, using cDNA obtained from the white adipocytes according to RT-PCR. […]

Substance	CD11b positive blood cell count [1]	Expression amount of leptin ([2]; Y5 agonist FF (ad lib fed))	Expression amount of leptin ([2]; Y5 agonist PF (pair feeding))	Expression amount of MCP-1 ([3]; Y5 agonist FF (ad lib fed))	Expression amount of MCP-1 ([3]; Y5 agonist PF (pair feeding))
MCP-1: monocyte chemotaxis factor protein of the CC chemokine subfamily, subcutaneously infused into mice	increases				
D-Try^34 NPY [Y5 agonist]		3.53	1.77	7.67	5.16
